{"source": "patent US20040105869A1", "about": "“Methods for cultivation of Kabanoanatake secreting and containing active ingredients for prophylactic and therapeutic agents against microbe-related syndromes including HIV” (priority 2002, published 2004)", "type_in_all_cases": "cell-based", "key": {"[1]": {"test_system": "H. pylori strain NCTC 11916", "assay": "Agar plate dilution method, control antibiotic", "settings": "Helicobacter pylori, NCTC11916, agar plate dilution method"}, "[2]": {"test_system": "H. pylori strain NCTC 11637", "assay": "Agar plate dilution method, control antibiotic", "settings": "Helicobacter pylori, NCTC11637, agar plate dilution method"}, "[3]": {"test_system": "H. pylori strain NCTC 11916", "assay": "Disc diffusion method against H. pylori", "settings": "Helicobacter pylori, NCTC11916, Disk", "description": "(§1) Each sample was extracted using DMSO at 10 w/v % to make stock solution, further from which ten-fold serial dilution was made by DMSO, to prepare the test solution. H. pylori. strain NCTC 11637 and strain NCTC 11916 were cultured on blood agar which added 5% defibrinated horse blood to Brucella Agar (BBL) at 37° C. for 3 days, under microaerophile surroundings (N2 80%, CO2 15%, O2 5%). The strains were suspended in Brucella broth added 0.5 mg/ml of BSA fraction V (Sigma A-4503) to a concentration of 10^8 cfu/ml, to prepare inoculum organism liquid, and 0.1 ml of the liquid was smeared on BSA agar added the said BSA, after that anti-bacterial activity against H. pylori was determined by Disc method, as described below. Each test solution of 20 μl was made to absorb in a sensitivity disk (8 mm in diameter, Advantech, thin-model), placed on agar smeared with strains, cultured under microaerophile surroundings at 37° C. for 3 to 5 days. After that, growth-inhibitory zone around the disk showing more than 1 mm was regarded as positive."}, "[4]": {"test_system": "H. pylori strain NCTC 11637", "assay": "Disc diffusion method against H. pylori", "settings": "Helicobacter pylori, NCTC11637, Disk", "description": "as §1"}}}
{"smiles": "CC[C@H]1OC(=O)[C@H](C)[C@@H](O[C@H]2C[C@@](C)(OC)[C@@H](O)[C@H](C)O2)[C@H](C)[C@@H](O[C@@H]2O[C@H](C)C[C@H](N(C)C)[C@H]2O)[C@](C)(O)C[C@@H](C)C(=O)[C@H](C)[C@@H](O)[C@]1(C)O", "note": "[Erythromycin]", "values": [{"measurement": "MIC", "setting": "[1]; BSA agar", "result": 0.03, "unit": "µg/mL"}, {"measurement": "MIC", "setting": "[1]; blood agar", "result": 0.05, "unit": "µg/mL"}, {"measurement": "MIC", "setting": "[2]; BSA agar", "result": 0.03, "unit": "µg/mL"}, {"measurement": "MIC", "setting": "[2]; blood agar", "result": 0.05, "unit": "µg/mL"}, {"measurement": "MIC", "setting": "[3]; BSA agar", "result": 1.6, "unit": "µg/mL"}, {"measurement": "MIC", "setting": "[3]; blood agar", "result": 6.3, "unit": "µg/mL"}, {"measurement": "MIC", "setting": "[4]; BSA agar", "result": 3.1, "unit": "µg/mL"}, {"measurement": "MIC", "setting": "[4]; blood agar", "result": 6.3, "unit": "µg/mL"}]}
